Laboratory results published in US5659048A, “Chiral [[(2-bromoethyl)-amino]methyl]-2-nitro-1H-imidazol-1-ethanol and related compounds” (priority 1995, dated 1997).

Columns and labels:
B6 C3 F1 mice = assay: Mouse Toxicity Studies (14-day lethality, LD10 by probit analysis); format: in vivo
Procedure: B6 C3 F1 mice were treated with varying doses of test agent by either intraperitoneal, intravenous, or oral administration. […] The maximum tolerated dose was established as the dose equal to or less than the LD10 as determined from a probit analysis.

KHT fibrosarcoma = assay: Radiosensitizing efficacy in mice: excision assay, clonogenic survival of KHT fibrosarcomas; format: in vivo, B6 C3 F1 mice; conditions: 250 mg/kg IP, 30 min before 10 Gray whole body irradiation
Procedure: Clonogenic survival of KHT fibrosarcomas was determined in assays employing B6 C3 F1 mice. Tumors were implanted subcutaneously by trocar. Nine days postimplantation, when tumors ranged from 200 to 400 mg in size, mice were treated IP with a range of drug doses including the maximum tolerated dose of the test agent. Thirty minutes later mice received whole body irradiation at a dose of 10 Gray, delivered at a rate of 2 Gray/minute with a 320 kV x-ray machine. Twenty-four hours after treatment, animals were sacrificed, and tumors were excised. Tumors were enzymatically digested to give single cell suspensions prior to plating for cell survival by clonogenic assay.

SCC7 carcinoma = assay: Radiosensitizing efficacy in mice: tumor growth delay, SCC7 carcinoma; format: in vivo, B6 C3 F1 mice; conditions: IP at maximum tolerated dose every 12 hours, 30 min before 2.5 Gray, 8 fractions
Procedure: Tumor growth delay was assessed in B6 C3 F1 mice implanted IM with 5×10^5 SCC7 carcinoma tumor cells. On Days 10 through 13 post tumor implantation, mice were treated every 12 hours with the maximum tolerated dose of test agent (determined from a 10-day multiple treatment schedule). Thirty minutes later, mice were irradiated at the tumor site with a 2.5 Gray dose of x-rays. Upon completion of this 8 fraction protocol, tumor growth was monitored daily.

[1] = Emesis Studies in beagle dogs; format: in vivo; conditions: dog, in vivo; IV, 10-minute infusion, 6-hour postdosing scoring; threshold dose at which 50% of animals exhibited emetic response; read-out: Emesis (Dogs) ED50
Procedure: (§1) Beagle dogs (approximately 10 kg body weight) were treated intravenously with a 10-minute infusion of 20 mL of the test compound prepared in sodium lactate buffer, pH 4.0. Dogs were scored over a 6-hour postdosing period for both the number of emetic episodes and the relative volume. Antiemetic therapy consisted of a 5-minute infusion of ondansetron, administered at a dose of 0.3 mg/kg 30 minutes prior to treatment with the nitroimidazole.

beagle dogs = assay: Emesis Studies in beagle dogs; format: in vivo; conditions: dogs, IV; result in words
Procedure: as §1

| SMILES | LD10 (B6 C3 F1 mice; IP) | LD10 (B6 C3 F1 mice; IV) | LD10 (B6 C3 F1 mice; PO) | Excision (250 mg/kg), % control (KHT fibrosarcoma) | Growth Delay Fold Enhancement (SCC7 carcinoma) | TD50 at 6 h [1] | Emesis relative to (S) isomer or racemic mixture (beagle dogs) |
| --- | --- | --- | --- | --- | --- | --- | --- |
| Br.O=[N+]([O-])c1nccn1C[C@H](O)CNCCBr [(R), (R)-(+)-α-[[(2-Bromoethyl)amino]methyl]-2-nitro-1H-imidazole-1-ethanol, monohydrobromide] | 850 mg/kg | 900 mg/kg | 1100 mg/kg | 11 % control | 2.1 Fold | 12 mg/kg | significantly less emesis than the (S) isomer or the mixture |
| Br.O=[N+]([O-])c1nccn1C[C@@H](O)CNCCBr [(S), (S)-(-)-α-[[(2-Bromoethyl)amino]methyl]-2-nitro-1H-imidazole-1-ethanol, monohydrobromide] | 850 mg/kg | 900 mg/kg | 1100 mg/kg | 11 % control | 1.8 Fold | 4 mg/kg | – |
